Data reported in PMC5397431, “Multigeneration toxicity of imidacloprid and thiacloprid to Folsomia candida” (Ecotoxicology (London, England), 2017).

Assays:
Folsomia candida [1] = test: Literature data on toxicity to Folsomia candida in soil; assay type: in vivo; details: 28-day, artificial soil; 10% OM (sphagnum peat), pure; recalculated with logistic dose-response model from figures; ref Reynolds (2008)
From the text: The LC50 and EC50 values for the toxicity of imidacloprid found in this study are within the range set by previous studies in our lab (Table S3). The values reported by Idinger ([2002]) for the toxicity of imidacloprid in the commercial formulation Confidor 70WP, tested in artificial soil, also are in the same range. Some LC50s reported in the literature, however, are somewhat higher, which could be explained by several factors. […] The use of an artificial soil with higher OM contents probably also explains the somewhat higher LC50 and EC50 values reported by Reynolds ([2008]). […] For two commercial formulations, EFSA ([2008]) found lower NOECs of 0.2–0.32 mg a.s./kg. Laboratory conditions such as temperature and light/dark regime may affect the metabolism of test animals, leading to differential toxicity of imidacloprid.
Table S3. Overview of data on the toxicity of imidacloprid and thiacloprid to Folsomia candida. All LC50 and EC50 values are in mg/kg dry soil and all tests were carried out on a 28-day exposure period. OM = organic matter.

Folsomia candida [2] = details: cited from earlier work
Aphis gossypii = tested on: Aphis gossypii; parameters: method as in Shi et al. (2011); details: exposed dermally for 48 h; ref Shi et al. (2011); cited from earlier work
[3] = 28-day exposure, Lufa 2.2, ~3.0% OM, pure, ref De Lima e Silva et al. (submitted)
[4] = artificial soil, 10% OM, based on regression analysis, ref Reynolds (2008)

For `O=[N+]([O-])NC1=NCCN1Cc1ccc(Cl)nc1` [Imidacloprid, imidacloprid], the “EC50, recalculated” value (Folsomia candida [1]) is given as 0.26^& mg/kg dry soil, the “LC50, recalculated” value (Folsomia candida [1]) is given as 0.86^& mg/kg dry soil and the EC50 (Folsomia candida [2]; [3]) is given as 0.097-0.30 mg/kg dry soil. For the same compound, the LC50 (Folsomia candida [2]; [3]) was 0.20-0.65 mg/kg dry soil, the NOEC (Folsomia candida [2]; active substance, ref EFSA (2008)) was 1.25 mg/kg dry soil and the “EC50 reported by Reynolds” value (Folsomia candida [2]; [4]) was 0.60 mg/kg. For the same compound, the “LC50 reported by Reynolds” value (Folsomia candida [2]; [4]) was 1.38 mg/kg and the “times more sensitive than to thiacloprid” value (Aphis gossypii) was “about 7.5 times”.
